Assay results reported in PubChem BioAssay AID2060909 (Molecular Pharmacology Branch, DTP, NCI, 2025).

Tested on: 362531-283-R-J2-PDC complex spheroid viability
Test: Anticancer human tumor 362531-283-R-J2-PDC patient-derived colon adenocarcinoma cell line growth inhibition [RAS]
Conditions: for IC50: curve of first compound; for viability, T/C: stronger effect = lower value
Procedure, shortened: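 Agents were tested in combination matrices in half-log decrements from a top concentration at or near clinical Cmax (10 microM if undetermined). Targets were multi-cell spheroids of tumour lines plus HUVEC and MSC stromal cells.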
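Further: spheroids exposed to the agents for 7 days before readout.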
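Wherever viability, T/C is given: luminescence viability as percent of DMSO vehicle control wells.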

For `C=CC(=O)Nc1cc(Nc2nccc(-c3cn(C)c4ccccc34)n2)c(OC)cc1N(C)CCN(C)C` + C=CC(=O)N1CCN(c2nc(OCC3CCCN3C)nc3c(F)c(-c4nc(N)cc(C)c4C(F)(F)F)c(Cl)cc23)C(C)C1, which IC50 (second compound 0.00316 µM) is on record?
Its IC50 is over 1 µM.

And the IC50 (second compound 0.01 µM)?
The IC50 was over 1 µM.

And the IC50 (second compound 0.0316 µM)?
Its IC50 is over 1 µM.

What about the IC50 (second compound 0.1 µM) of the same compound?
The IC50 was over 1 µM.

What about the IC50 (second compound 0.316 µM) of the same compound?
The IC50 was over 1 µM.

What about the IC50 (second compound 1 µM) of the same compound?
Its IC50 is over 1 µM.

What about the viability, T/C (second compound 0.00316 µM, first compound 0.00316 µM) of the same compound?
Its viability, T/C is 103%.

What about the viability, T/C (second compound 0.00316 µM, first compound 0.01 µM) of the same compound?
The viability, T/C was 97.4%.

What about the viability, T/C (second compound 0.00316 µM, first compound 0.0316 µM) of the same compound?
The viability, T/C was 100%.

What about the viability, T/C (second compound 0.00316 µM, first compound 0.1 µM) of the same compound?
The viability, T/C was 95.6%.

And the viability, T/C (second compound 0.00316 µM, first compound 0.316 µM)?
The viability, T/C was 89%.

What about the viability, T/C (second compound 0.00316 µM, first compound 1 µM) of the same compound?
The viability, T/C was 69.8%.

What about the viability, T/C (second compound 0.01 µM, first compound 0.00316 µM) of the same compound?
The viability, T/C was 107%.

What about the viability, T/C (second compound 0.01 µM, first compound 0.01 µM) of the same compound?
Its viability, T/C is 100%.

What about the viability, T/C (second compound 0.01 µM, first compound 0.0316 µM) of the same compound?
Its viability, T/C is 104%.

And the viability, T/C (second compound 0.01 µM, first compound 0.1 µM)?
The viability, T/C was 98.3%.

And the viability, T/C (second compound 0.01 µM, first compound 0.316 µM)?
The viability, T/C was 96.9%.

What about the viability, T/C (second compound 0.01 µM, first compound 1 µM) of the same compound?
Its viability, T/C is 56%.

What about the viability, T/C (second compound 0.0316 µM, first compound 0.00316 µM) of the same compound?
The viability, T/C was 104%.

What about the viability, T/C (second compound 0.0316 µM, first compound 0.01 µM) of the same compound?
The viability, T/C was 99.2%.

And the viability, T/C (second compound 0.0316 µM, first compound 0.0316 µM)?
The viability, T/C was 98.3%.

And the viability, T/C (second compound 0.0316 µM, first compound 0.1 µM)?
The viability, T/C was 94.9%.

And the viability, T/C (second compound 0.0316 µM, first compound 0.316 µM)?
Its viability, T/C is 93.5%.

What about the viability, T/C (second compound 0.0316 µM, first compound 1 µM) of the same compound?
The viability, T/C was 65.5%.

And the viability, T/C (second compound 0.1 µM, first compound 0.00316 µM)?
Its viability, T/C is 103%.

And the viability, T/C (second compound 0.1 µM, first compound 0.01 µM)?
Its viability, T/C is 104%.

And the viability, T/C (second compound 0.1 µM, first compound 0.0316 µM)?
Its viability, T/C is 101%.

And the viability, T/C (second compound 0.1 µM, first compound 0.1 µM)?
The viability, T/C was 96.8%.

What about the viability, T/C (second compound 0.1 µM, first compound 0.316 µM) of the same compound?
The viability, T/C was 101%.

What about the viability, T/C (second compound 0.1 µM, first compound 1 µM) of the same compound?
The viability, T/C was 62.8%.

What about the viability, T/C (second compound 0.316 µM, first compound 0.00316 µM) of the same compound?
The viability, T/C was 93.8%.

What about the viability, T/C (second compound 0.316 µM, first compound 0.01 µM) of the same compound?
The viability, T/C was 96%.

What about the viability, T/C (second compound 0.316 µM, first compound 0.0316 µM) of the same compound?
Its viability, T/C is 98.1%.

And the viability, T/C (second compound 0.316 µM, first compound 0.1 µM)?
Its viability, T/C is 94.8%.

What about the viability, T/C (second compound 0.316 µM, first compound 0.316 µM) of the same compound?
The viability, T/C was 96.2%.

And the viability, T/C (second compound 0.316 µM, first compound 1 µM)?
The viability, T/C was 54.9%.

And the viability, T/C (second compound 1 µM, first compound 0.00316 µM)?
Its viability, T/C is 105%.

What about the viability, T/C (second compound 1 µM, first compound 0.01 µM) of the same compound?
The viability, T/C was 95.8%.

What about the viability, T/C (second compound 1 µM, first compound 0.0316 µM) of the same compound?
The viability, T/C was 97.4%.

And the viability, T/C (second compound 1 µM, first compound 0.1 µM)?
Its viability, T/C is 103%.

What about the viability, T/C (second compound 1 µM, first compound 0.316 µM) of the same compound?
The viability, T/C was 86.5%.

What about the viability, T/C (second compound 1 µM, first compound 1 µM) of the same compound?
The viability, T/C was 70.7%.
